Columns and labels:
Assay in all cases: KINOMEscan scanMAX
Assay type in all cases: binding
Settings in all cases: read-out: Percent Control
DAPK3 = biological target: T1, DAPK3 (Homo sapiens, UniProt O43293)
T1 construct: purchased Eurofins Discovery (DiscoverX KINOMEscan scanMAX)
Procedure: (§1) The kinome-wide binding assay was performed by Eurofins Discovery using the scanMAX screening platform. More information can be found on the Eurofins Discovery Web site.

FLT3(N841I) = biological target: T2, FLT3(N841I) (Homo sapiens, UniProt P36888, N841I)
T2 construct: purchased Eurofins Discovery (DiscoverX KINOMEscan scanMAX)
Procedure: as §1

FLT1 = biological target: T3, FLT1 (Homo sapiens, UniProt P17948)
T3 construct: purchased Eurofins Discovery (DiscoverX KINOMEscan scanMAX)
Procedure: as §1

BIKE = biological target: T4, BIKE (Homo sapiens, UniProt Q9NSY1)
T4 construct: purchased Eurofins Discovery (DiscoverX KINOMEscan scanMAX)
Procedure: as §1

ERBB2 = biological target: T5, ERBB2 (Homo sapiens, UniProt P04626)
T5 construct: purchased Eurofins Discovery (DiscoverX KINOMEscan scanMAX)
Procedure: as §1

MAP3K1 = biological target: T6, MAP3K1 (Homo sapiens, UniProt Q13233)
T6 construct: purchased Eurofins Discovery (DiscoverX KINOMEscan scanMAX)
Procedure: as §1

LATS1 = biological target: T7, LATS1 (Homo sapiens, UniProt O95835)
T7 construct: purchased Eurofins Discovery (DiscoverX KINOMEscan scanMAX)
Procedure: as §1

EPHB4 = biological target: T8, EPHB4 (Homo sapiens, UniProt P54760)
T8 construct: purchased Eurofins Discovery (DiscoverX KINOMEscan scanMAX)
Procedure: as §1

MAP3K2 = biological target: T9, MAP3K2 (Homo sapiens, UniProt Q9Y2U5)
T9 construct: purchased Eurofins Discovery (DiscoverX KINOMEscan scanMAX)
Procedure: as §1

PRKCQ = biological target: T10, PRKCQ (Homo sapiens, UniProt Q04759)
T10 construct: purchased Eurofins Discovery (DiscoverX KINOMEscan scanMAX)
Procedure: as §1

KIT-autoinhibited = biological target: T11, KIT-autoinhibited (Homo sapiens, UniProt P10721)
T11 construct: purchased Eurofins Discovery (DiscoverX KINOMEscan scanMAX)
Procedure: as §1

MAST1 = biological target: T12, MAST1 (Homo sapiens, UniProt Q9Y2H9)
T12 construct: purchased Eurofins Discovery (DiscoverX KINOMEscan scanMAX)
Procedure: as §1

[1] = biological target: T13, ABL1(M351T)-phosphorylated (Homo sapiens, UniProt P00519, M351T)
T13 construct: purchased Eurofins Discovery (DiscoverX KINOMEscan scanMAX)
Procedure: as §1

MYO3A = biological target: T14, MYO3A (Homo sapiens, UniProt Q8NEV4)
T14 construct: purchased Eurofins Discovery (DiscoverX KINOMEscan scanMAX)
Procedure: as §1

AKT2 = biological target: T15, AKT2 (Homo sapiens, UniProt P31751)
T15 construct: purchased Eurofins Discovery (DiscoverX KINOMEscan scanMAX)
Procedure: as §1

NLK = biological target: T16, NLK (Homo sapiens, UniProt Q9UBE8)
T16 construct: purchased Eurofins Discovery (DiscoverX KINOMEscan scanMAX)
Procedure: as §1

FRK = biological target: T17, FRK (Homo sapiens, UniProt P42685)
T17 construct: purchased Eurofins Discovery (DiscoverX KINOMEscan scanMAX)
Procedure: as §1

[2] = biological target: T18, TYK2(JH1domain-catalytic) (Homo sapiens, UniProt P29597)
T18 construct: TYK2(JH1domain-catalytic); purchased Eurofins Discovery (DiscoverX KINOMEscan scanMAX)
Procedure: as §1

DYRK1B = biological target: T19, DYRK1B (Homo sapiens, UniProt Q9Y463)
T19 construct: purchased Eurofins Discovery (DiscoverX KINOMEscan scanMAX)
Procedure: as §1

FGFR3 = biological target: T20, FGFR3 (Homo sapiens, UniProt P22607)
T20 construct: purchased Eurofins Discovery (DiscoverX KINOMEscan scanMAX)
Procedure: as §1

PIKFYVE = biological target: T21, PIKFYVE (Homo sapiens, UniProt Q9Y2I7)
T21 construct: purchased Eurofins Discovery (DiscoverX KINOMEscan scanMAX)
Procedure: as §1

PRKD1 = biological target: T22, PRKD1 (Homo sapiens, UniProt Q15139)
T22 construct: purchased Eurofins Discovery (DiscoverX KINOMEscan scanMAX)
Procedure: as §1

CDKL5 = biological target: T23, CDKL5 (Homo sapiens, UniProt O76039)
T23 construct: purchased Eurofins Discovery (DiscoverX KINOMEscan scanMAX)
Procedure: as §1

CSNK1G3 = biological target: T24, CSNK1G3 (Homo sapiens, UniProt Q9Y6M4)
T24 construct: purchased Eurofins Discovery (DiscoverX KINOMEscan scanMAX)
Procedure: as §1

PRKCI = biological target: T25, PRKCI (Homo sapiens, UniProt P41743)
T25 construct: purchased Eurofins Discovery (DiscoverX KINOMEscan scanMAX)
Procedure: as §1

LIMK1 = biological target: T26, LIMK1 (Homo sapiens, UniProt P53667)
T26 construct: purchased Eurofins Discovery (DiscoverX KINOMEscan scanMAX)
Procedure: as §1

CAMK1B = biological target: T27, CAMK1B (Homo sapiens, UniProt Q6P2M8)
T27 construct: purchased Eurofins Discovery (DiscoverX KINOMEscan scanMAX)
Procedure: as §1

ITK = biological target: T28, ITK (Homo sapiens, UniProt Q08881)
T28 construct: purchased Eurofins Discovery (DiscoverX KINOMEscan scanMAX)
Procedure: as §1

EGFR(E746-A750del) = biological target: T29, EGFR(E746-A750del) (Homo sapiens, UniProt P00533, DEL746-750)
T29 construct: purchased Eurofins Discovery (DiscoverX KINOMEscan scanMAX)
Procedure: as §1

LZK = biological target: T30, LZK (Homo sapiens, UniProt O43283)
T30 construct: purchased Eurofins Discovery (DiscoverX KINOMEscan scanMAX)
Procedure: as §1

[3] = biological target: T31, RSK1(Kin.Dom.2-C-terminal) (Homo sapiens, UniProt Q15418)
T31 construct: RSK1(Kin.Dom.2-C-terminal); purchased Eurofins Discovery (DiscoverX KINOMEscan scanMAX)
Procedure: as §1

[4] = biological target: T32, ABL1(Q252H)-nonphosphorylated (Homo sapiens, UniProt P00519, Q252H)
T32 construct: purchased Eurofins Discovery (DiscoverX KINOMEscan scanMAX)
Procedure: as §1

STK16 = biological target: T33, STK16 (Homo sapiens, UniProt O75716)
T33 construct: purchased Eurofins Discovery (DiscoverX KINOMEscan scanMAX)
Procedure: as §1

T9 sequence (Q9Y2U5 whole entry): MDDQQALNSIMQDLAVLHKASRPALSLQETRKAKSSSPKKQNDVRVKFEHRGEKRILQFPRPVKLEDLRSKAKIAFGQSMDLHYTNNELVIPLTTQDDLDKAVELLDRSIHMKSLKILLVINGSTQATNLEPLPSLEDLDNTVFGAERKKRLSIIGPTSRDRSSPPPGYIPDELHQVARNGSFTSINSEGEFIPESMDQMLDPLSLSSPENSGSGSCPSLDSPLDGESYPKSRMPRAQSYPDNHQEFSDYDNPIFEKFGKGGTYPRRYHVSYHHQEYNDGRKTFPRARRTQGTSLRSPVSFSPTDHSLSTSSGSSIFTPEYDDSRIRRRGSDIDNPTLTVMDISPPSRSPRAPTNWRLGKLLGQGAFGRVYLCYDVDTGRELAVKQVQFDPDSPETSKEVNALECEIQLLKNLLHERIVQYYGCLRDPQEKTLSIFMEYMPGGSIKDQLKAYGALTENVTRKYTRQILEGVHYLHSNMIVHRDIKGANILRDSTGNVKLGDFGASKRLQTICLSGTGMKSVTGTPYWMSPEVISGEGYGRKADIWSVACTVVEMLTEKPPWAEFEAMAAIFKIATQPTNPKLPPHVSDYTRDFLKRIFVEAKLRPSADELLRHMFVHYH
T24 sequence (Q9Y6M4 whole entry): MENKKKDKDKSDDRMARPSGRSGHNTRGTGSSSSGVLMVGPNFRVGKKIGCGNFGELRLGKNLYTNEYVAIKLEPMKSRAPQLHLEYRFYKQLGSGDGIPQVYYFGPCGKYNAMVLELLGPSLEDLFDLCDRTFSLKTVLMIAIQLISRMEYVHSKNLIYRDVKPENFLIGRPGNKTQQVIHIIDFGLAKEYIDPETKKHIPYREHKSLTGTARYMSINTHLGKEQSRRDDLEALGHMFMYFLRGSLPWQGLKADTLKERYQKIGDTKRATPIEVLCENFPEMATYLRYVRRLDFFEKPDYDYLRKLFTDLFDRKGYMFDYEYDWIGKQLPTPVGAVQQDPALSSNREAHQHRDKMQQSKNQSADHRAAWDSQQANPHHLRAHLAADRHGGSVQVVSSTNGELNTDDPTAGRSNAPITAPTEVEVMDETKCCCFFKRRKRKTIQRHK
T23 sequence (O76039 whole entry): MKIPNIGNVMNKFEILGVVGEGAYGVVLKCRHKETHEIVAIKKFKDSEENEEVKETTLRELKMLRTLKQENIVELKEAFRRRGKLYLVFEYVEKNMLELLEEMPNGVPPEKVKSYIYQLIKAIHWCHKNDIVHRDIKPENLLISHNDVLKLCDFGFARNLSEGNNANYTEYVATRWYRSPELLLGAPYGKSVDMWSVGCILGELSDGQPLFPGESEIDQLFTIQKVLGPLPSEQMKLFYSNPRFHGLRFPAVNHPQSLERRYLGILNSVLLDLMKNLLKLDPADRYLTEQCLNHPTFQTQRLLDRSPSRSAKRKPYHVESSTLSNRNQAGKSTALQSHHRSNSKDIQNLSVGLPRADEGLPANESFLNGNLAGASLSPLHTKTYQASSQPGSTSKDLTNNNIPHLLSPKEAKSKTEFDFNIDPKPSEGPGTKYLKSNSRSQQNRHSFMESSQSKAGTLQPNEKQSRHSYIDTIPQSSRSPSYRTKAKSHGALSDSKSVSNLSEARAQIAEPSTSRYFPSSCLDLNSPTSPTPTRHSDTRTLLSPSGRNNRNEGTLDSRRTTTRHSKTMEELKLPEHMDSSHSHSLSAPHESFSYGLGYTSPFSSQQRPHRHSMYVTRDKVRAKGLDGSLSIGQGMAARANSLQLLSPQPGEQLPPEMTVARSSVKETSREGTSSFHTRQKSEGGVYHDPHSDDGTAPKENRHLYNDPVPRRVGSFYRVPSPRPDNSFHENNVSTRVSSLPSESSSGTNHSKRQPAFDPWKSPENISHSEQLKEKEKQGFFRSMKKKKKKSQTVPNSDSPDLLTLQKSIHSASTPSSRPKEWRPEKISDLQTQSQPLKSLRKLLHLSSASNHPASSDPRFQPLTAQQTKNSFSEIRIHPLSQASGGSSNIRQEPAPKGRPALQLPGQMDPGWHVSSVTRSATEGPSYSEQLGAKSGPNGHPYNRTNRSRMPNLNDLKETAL
T29 sequence (P00533 with tags, fused parts or gaps DEL746-750 limits assumed): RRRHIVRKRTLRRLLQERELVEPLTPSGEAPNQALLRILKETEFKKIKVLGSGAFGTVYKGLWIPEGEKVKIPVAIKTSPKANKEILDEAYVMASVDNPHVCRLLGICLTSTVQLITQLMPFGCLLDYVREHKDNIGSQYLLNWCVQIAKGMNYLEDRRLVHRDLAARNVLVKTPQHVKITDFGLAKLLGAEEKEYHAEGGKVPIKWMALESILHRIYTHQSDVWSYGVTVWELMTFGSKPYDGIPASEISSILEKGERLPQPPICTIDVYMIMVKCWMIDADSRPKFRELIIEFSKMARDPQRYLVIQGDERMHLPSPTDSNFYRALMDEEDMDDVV
T19 sequence (Q9Y463 whole entry): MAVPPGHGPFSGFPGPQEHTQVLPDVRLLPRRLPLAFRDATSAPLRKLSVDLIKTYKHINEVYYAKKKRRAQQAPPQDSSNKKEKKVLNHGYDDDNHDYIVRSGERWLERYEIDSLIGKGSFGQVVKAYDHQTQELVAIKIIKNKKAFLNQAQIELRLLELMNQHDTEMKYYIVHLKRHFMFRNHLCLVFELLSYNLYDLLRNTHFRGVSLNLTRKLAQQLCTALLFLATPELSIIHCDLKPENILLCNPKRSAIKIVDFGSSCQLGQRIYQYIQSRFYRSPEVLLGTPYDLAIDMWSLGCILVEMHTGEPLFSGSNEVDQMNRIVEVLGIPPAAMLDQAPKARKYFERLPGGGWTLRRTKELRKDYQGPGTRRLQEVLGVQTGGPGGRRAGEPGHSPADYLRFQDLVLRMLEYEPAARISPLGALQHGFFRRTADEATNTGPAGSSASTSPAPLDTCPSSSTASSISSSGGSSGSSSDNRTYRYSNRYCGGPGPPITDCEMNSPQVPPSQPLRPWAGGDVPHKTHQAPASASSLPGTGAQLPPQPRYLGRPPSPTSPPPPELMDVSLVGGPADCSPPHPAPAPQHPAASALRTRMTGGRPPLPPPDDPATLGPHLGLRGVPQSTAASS
T33 sequence (O75716 whole entry): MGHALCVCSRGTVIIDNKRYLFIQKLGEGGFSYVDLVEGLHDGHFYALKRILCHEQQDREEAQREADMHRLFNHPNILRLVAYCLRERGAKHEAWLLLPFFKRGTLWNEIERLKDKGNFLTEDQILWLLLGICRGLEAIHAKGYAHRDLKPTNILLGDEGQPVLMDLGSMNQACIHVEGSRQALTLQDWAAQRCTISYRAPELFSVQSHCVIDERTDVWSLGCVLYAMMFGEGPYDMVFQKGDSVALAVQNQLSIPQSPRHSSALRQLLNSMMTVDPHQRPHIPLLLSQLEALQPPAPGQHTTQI
T11 sequence (P10721 26-976): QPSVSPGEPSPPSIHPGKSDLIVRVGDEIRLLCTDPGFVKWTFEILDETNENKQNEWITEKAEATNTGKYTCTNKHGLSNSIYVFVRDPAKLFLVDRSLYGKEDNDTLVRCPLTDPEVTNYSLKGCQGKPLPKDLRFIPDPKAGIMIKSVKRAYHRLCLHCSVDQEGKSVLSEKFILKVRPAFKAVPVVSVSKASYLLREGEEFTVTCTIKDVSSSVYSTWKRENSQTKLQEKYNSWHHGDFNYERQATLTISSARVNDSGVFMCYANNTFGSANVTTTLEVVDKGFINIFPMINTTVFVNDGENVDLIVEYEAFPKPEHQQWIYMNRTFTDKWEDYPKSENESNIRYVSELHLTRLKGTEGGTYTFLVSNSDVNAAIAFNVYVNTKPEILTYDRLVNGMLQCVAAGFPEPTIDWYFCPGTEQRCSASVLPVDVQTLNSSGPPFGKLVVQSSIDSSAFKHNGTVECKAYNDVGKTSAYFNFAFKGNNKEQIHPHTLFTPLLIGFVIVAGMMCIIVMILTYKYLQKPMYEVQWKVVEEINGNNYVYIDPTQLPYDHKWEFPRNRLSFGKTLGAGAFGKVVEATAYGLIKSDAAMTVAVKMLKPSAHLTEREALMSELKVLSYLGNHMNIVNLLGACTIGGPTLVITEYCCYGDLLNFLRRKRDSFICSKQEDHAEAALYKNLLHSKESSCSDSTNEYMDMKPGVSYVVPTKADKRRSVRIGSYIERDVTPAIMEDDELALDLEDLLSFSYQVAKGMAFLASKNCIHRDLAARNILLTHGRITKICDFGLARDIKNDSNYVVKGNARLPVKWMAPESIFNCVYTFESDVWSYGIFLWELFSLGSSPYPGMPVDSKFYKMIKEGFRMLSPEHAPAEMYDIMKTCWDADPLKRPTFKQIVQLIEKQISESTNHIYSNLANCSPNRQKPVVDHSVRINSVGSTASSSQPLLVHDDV
T16 sequence (Q9UBE8 whole entry): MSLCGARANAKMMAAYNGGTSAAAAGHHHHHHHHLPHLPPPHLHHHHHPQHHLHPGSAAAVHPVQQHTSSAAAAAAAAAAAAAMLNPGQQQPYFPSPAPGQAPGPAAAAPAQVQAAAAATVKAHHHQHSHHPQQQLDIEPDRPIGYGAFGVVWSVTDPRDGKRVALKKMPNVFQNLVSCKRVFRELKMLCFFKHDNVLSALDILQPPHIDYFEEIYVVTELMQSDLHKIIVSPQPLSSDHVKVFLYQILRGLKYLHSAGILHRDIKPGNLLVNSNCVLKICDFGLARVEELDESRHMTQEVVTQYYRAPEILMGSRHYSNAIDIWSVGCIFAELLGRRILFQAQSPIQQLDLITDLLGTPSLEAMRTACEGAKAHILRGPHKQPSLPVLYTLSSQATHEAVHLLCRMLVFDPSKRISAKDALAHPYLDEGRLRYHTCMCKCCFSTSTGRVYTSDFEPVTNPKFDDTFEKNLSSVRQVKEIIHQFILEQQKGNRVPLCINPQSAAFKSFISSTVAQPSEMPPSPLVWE

## Cc1cc(Nc2ccc(F)c(CC3(C(=O)N4CCC(F)(CN5CCN(c6ccc(N7CCC(=O)NC7=O)cn6)CC5)CC4)CCN(Cc4cccc(Cl)c4F)CC3)n2)n[nH]1 [SK5527]
DAPK3; 100 nM
  remaining binding at 0.1 µM: 100%
DAPK3; 1000 nM
  remaining binding at 1 µM: 100%
FLT3(N841I); 100 nM
  remaining binding at 0.1 µM: 83%
FLT3(N841I); 1000 nM
  remaining binding at 1 µM: 76%
FLT1; 100 nM
  remaining binding at 0.1 µM: 91%
FLT1; 1000 nM
  remaining binding at 1 µM: 86%
BIKE; 100 nM
  remaining binding at 0.1 µM: 80%
BIKE; 1000 nM
  remaining binding at 1 µM: 73%
ERBB2; 100 nM
  remaining binding at 0.1 µM: 100%
ERBB2; 1000 nM
  remaining binding at 1 µM: 100%
MAP3K1; 100 nM
  remaining binding at 0.1 µM: 93%
MAP3K1; 1000 nM
  remaining binding at 1 µM: 60%
LATS1; 100 nM
  remaining binding at 0.1 µM: 100%
LATS1; 1000 nM
  remaining binding at 1 µM: 100%
EPHB4; 100 nM
  remaining binding at 0.1 µM: 100%
EPHB4; 1000 nM
  remaining binding at 1 µM: 100%
MAP3K2; 100 nM
  remaining binding at 0.1 µM: 92%
MAP3K2; 1000 nM
  remaining binding at 1 µM: 73%
PRKCQ; 100 nM
  remaining binding at 0.1 µM: 100%
PRKCQ; 1000 nM
  remaining binding at 1 µM: 94%
KIT-autoinhibited; 100 nM
  remaining binding at 0.1 µM: 94%
KIT-autoinhibited; 1000 nM
  remaining binding at 1 µM: 84%
MAST1; 100 nM
  remaining binding at 0.1 µM: 72%
MAST1; 1000 nM
  remaining binding at 1 µM: 100%
[1]; 100 nM
  remaining binding at 0.1 µM: 70%
[1]; 1000 nM
  remaining binding at 1 µM: 34%
MYO3A; 100 nM
  remaining binding at 0.1 µM: 100%
MYO3A; 1000 nM
  remaining binding at 1 µM: 100%
AKT2; 100 nM
  remaining binding at 0.1 µM: 98%
AKT2; 1000 nM
  remaining binding at 1 µM: 98%
NLK; 100 nM
  remaining binding at 0.1 µM: 94%
NLK; 1000 nM
  remaining binding at 1 µM: 82%
FRK; 100 nM
  remaining binding at 0.1 µM: 100%
FRK; 1000 nM
  remaining binding at 1 µM: 96%
[2]; 100 nM
  remaining binding at 0.1 µM: 79%
[2]; 1000 nM
  remaining binding at 1 µM: 81%
DYRK1B; 100 nM
  remaining binding at 0.1 µM: 98%
DYRK1B; 1000 nM
  remaining binding at 1 µM: 74%
FGFR3; 100 nM
  remaining binding at 0.1 µM: 96%
FGFR3; 1000 nM
  remaining binding at 1 µM: 84%
PIKFYVE; 100 nM
  remaining binding at 0.1 µM: 100%
PIKFYVE; 1000 nM
  remaining binding at 1 µM: 100%
PRKD1; 100 nM
  remaining binding at 0.1 µM: 100%
PRKD1; 1000 nM
  remaining binding at 1 µM: 100%
CDKL5; 100 nM
  remaining binding at 0.1 µM: 94%
CDKL5; 1000 nM
  remaining binding at 1 µM: 81%
CSNK1G3; 100 nM
  remaining binding at 0.1 µM: 100%
CSNK1G3; 1000 nM
  remaining binding at 1 µM: 92%
PRKCI; 100 nM
  remaining binding at 0.1 µM: 92%
PRKCI; 1000 nM
  remaining binding at 1 µM: 76%
LIMK1; 100 nM
  remaining binding at 0.1 µM: 88%
LIMK1; 1000 nM
  remaining binding at 1 µM: 96%
CAMK1B; 100 nM
  remaining binding at 0.1 µM: 100%
CAMK1B; 1000 nM
  remaining binding at 1 µM: 100%
ITK; 100 nM
  remaining binding at 0.1 µM: 100%
ITK; 1000 nM
  remaining binding at 1 µM: 81%
EGFR(E746-A750del); 100 nM
  remaining binding at 0.1 µM: 78%
EGFR(E746-A750del); 1000 nM
  remaining binding at 1 µM: 70%
LZK; 100 nM
  remaining binding at 0.1 µM: 92%
LZK; 1000 nM
  remaining binding at 1 µM: 90%
[3]; 100 nM
  remaining binding at 0.1 µM: 85%
[3]; 1000 nM
  remaining binding at 1 µM: 92%
[4]; 100 nM
  remaining binding at 0.1 µM: 63%
[4]; 1000 nM
  remaining binding at 1 µM: 15%
STK16; 100 nM
  remaining binding at 0.1 µM: 100%
STK16; 1000 nM
  remaining binding at 1 µM: 69%

Source: PMC12670405, “Second-Generation AURKA-Targeting PROTACs: Structural Optimization toward in Vivo Degradation in Neuroblastoma” (Journal of Medicinal Chemistry, 2025)
